Measurements published in US20220144815A1, “1,3,4-OXADIAZOLES AND THEIR DERIVATIVES AS NEW ANTIFUNGAL AGENTS” (Bayer Aktiengesellschaft, priority 2018, published 2022).

Test: Log P by HPLC on reversed phase columns, method [a] (EEC directive 79/831 Annex V.A8)
Type: physicochemical
Settings: log P determined according to method [a] (HPLC on reversed phase columns)
Procedure: Measurement of Log P values as provided herein was performed according to EEC directive 79/831 Annex V.A8 by HPLC (High Performance Liquid Chromatography) on reversed phase columns with the following methods: • ^[a] Log P value is determined by measurement of LC-UV, in an acidic range, with 0.1% formic acid in water and acetonitrile as eluent (linear gradient from 10% acetonitrile to 95% acetonitrile). • ^[b] Log P value is determined by measurement of LC-UV, in a neutral range, with 0.001 molar ammonium acetate solution in water and acetonitrile as eluent (linear gradient from 10% acetonitrile to 95% acetonitrile). • ^[c] Log P value is determined by measurement of LC-UV, in an acidic range, with 0.1% phosphoric acid and acetonitrile as eluent (linear gradient from 10% acetonitrile to 95% acetonitrile). If more than one Log P value is available within the same method, all the values are given and separated by “+”. Calibration was done with straight-chain alkan2-ones (with 3 to 16 carbon atoms) with known Log P values (measurement of Log P values using retention times with linear interpolation between successive alkanones). Lambda-max-values were determined using UV-spectra from 200 nm to 400 nm and the peak values of the chromatographic signals In table 1, the log P values were determined according to method [^a]. In table 2, the log P values were determined according to method [^a].

| Compound | logP |
| --- | --- |
| FC(F)c1nnc(-c2ccc(Br)cc2)o1 [Example I-009] | 2.89 |
| FC(F)c1nnc(-c2ccc(Cn3ccnc3)cc2)o1 [Example I-010] | 0.60 |
| COC(=O)c1ccc(-c2nnc(C(F)(F)F)s2)cc1 [Example I-011] | 3.23 |
| O=C(Nc1ccc(-c2nnc(C(F)F)o2)cc1)C(F)F [Example I-012] | 2.01 |
| FC(F)c1nnc(-c2ccc(Nc3ncccn3)cc2)o1 [Example I-013] | 2.23 |
| CCc1noc(-c2ccc(-c3nnc(C(F)F)o3)cc2)n1 [Example I-015] | 2.94 |
| COCCNC(=O)c1ccc(-c2nnc(C(F)F)o2)cc1 [Example I-016] | 1.58 |
| Fc1ccccc1Nc1ccc(-c2nnc(C(F)F)o2)cc1 [Example I-017] | 3.19 |
| CCc1noc(-c2ccc(-c3nnc(C(F)(F)F)o3)cc2)n1 [Example I-018] | 3.59 |
| FC(F)c1nnc(-c2ccc(-c3nnc(C(F)F)o3)cc2)o1 [Example I-019] | 2.44 |
| COCCNC(=O)c1ccc(-c2nnc(C(F)(F)F)o2)cc1 [Example I-020] | 2.04 |
| CC1(C)OB(c2ccc(-c3nnc(C(F)F)o3)cc2)OC1(C)C [Example I-021] | 3.84 |
| CN(C(=O)c1ccc(-c2nnc(C(F)F)o2)cc1)c1ccccc1 [Example I-022] | 2.46 |
| FC(F)c1nnc(-c2ccc(COc3ccc(Cl)cc3)cc2)o1 [Example I-024] | 4.03 |
| Fc1ccccc1C1(Nc2ccc(-c3nnc(C(F)F)o3)cc2)CC1 [Example I-025] | 3.57 |
| CN(C(=O)c1ccc(-c2nnc(C(F)(F)F)o2)cc1)c1ccccc1 [Example I-026] | 3.04 |
| O=C(Nc1ccc(F)cc1F)c1ccc(-c2nnc(C(F)F)o2)cc1 [Example I-027] | 2.57 |
| O=C(Nc1ccc(F)cc1F)c1ccc(-c2nnc(C(F)(F)F)o2)cc1 [Example I-028] | 3.12 |
| O=C(Nc1ccc(F)cc1F)c1ccc(-c2nnc(C(F)(F)F)s2)cc1 [Example I-029] | 3.29 |
| Nc1ccc(-c2nnc(C(F)F)o2)cn1 [Example I-030] | 0.11 |
| FC(F)c1nnc(-c2ccc(Cl)nc2)o1 [Example I-031] | 1.92 |
| O=C(O)c1ccc(-c2nnc(C(F)F)o2)cn1 [Example I-032] | 0.83 |

| Compound | logP |
| --- | --- |
| CNC(=O)c1ccc(-c2nnc(C(F)F)o2)cn1 [Example I-033] | 1.32 |
| CC(=O)Nc1ccc(-c2nnc(C(F)F)o2)cn1 [Example I-034] | 1.32 |
| FC(F)c1nnc(-c2ccc(-c3ccco3)nc2)o1 [Example I-035] | 2.33 |
| FC(F)c1nnc(-c2ccc(-n3cccn3)nc2)o1 [Example I-036] | 2.31 |
| FC(F)c1nnc(-c2ccc(C(F)(F)F)nc2)o1 [Example I-037] | 2.39 |
| COC(=O)Nc1ccc(-c2nnc(C(F)F)o2)cn1 [Example I-038] | 1.66 |
| C#CCNC(=O)c1ccc(-c2nnc(C(F)F)o2)cn1 [Example I-039] | 1.68 |
| FC(F)c1nnc(-c2ccc(N3CCCCC3)nc2)o1 [Example I-040] | 2.72 |
| FC(F)c1nnc(-c2ccc(N3CCOCC3)nc2)o1 [Example I-041] | 1.91 |
| CN(C)NC(=O)c1ccc(-c2nnc(C(F)F)o2)cn1 [Example I-042] | 1.14 |
| FC(F)c1nnc(-c2ccc(Oc3ccccc3)nc2)o1 [Example I-043] | 2.90 |
| CC1(NC(=O)c2ccc(-c3nnc(C(F)F)o3)cn2)CC1 [Example I-044] | 2.02 |
| CC1(C(=O)Nc2ccc(-c3nnc(C(F)F)o3)cn2)CC1 [Example I-045] | 2.28 |
| O=C(NCC1CC1)c1ccc(-c2nnc(C(F)F)o2)cn1 [Example I-046] | 2.16 |
| COCCNC(=O)c1ccc(-c2nnc(C(F)F)o2)cn1 [Example I-047] | 1.55 |
| Cc1ccc(NC(=O)c2ccc(-c3nnc(C(F)F)o3)cn2)cc1 [Example I-048] | 3.14 |
| CN(C(=O)c1ccc(-c2nnc(C(F)F)o2)cn1)c1ccccc1 [Example I-049] | 2.05 |
| O=C(Cc1ccccc1)Nc1ccc(-c2nnc(C(F)F)o2)cn1 [Example I-050] | 2.54 |
| O=C(Nc1ccccc1)Nc1ccc(-c2nnc(C(F)F)o2)cn1 [Example I-051] | 2.57 |
| CC(Nc1ccc(-c2nnc(C(F)F)o2)cn1)c1ccc(F)cc1 (stereo not shown) [Example I-052] | 2.95 |
| Fc1ccccc1Nc1ccc(-c2nnc(C(F)(F)Cl)o2)cn1 [Example I-053] | 3.54 |
| Fc1ccc(C2(Nc3ccc(-c4nnc(C(F)F)o4)cn3)CC2)cc1 [Example I-054] | 2.79 |

| Compound | logP |
| --- | --- |
| O=C(Nc1ccc(-c2nnc(C(F)F)o2)cn1)c1ccc(F)cc1F [Example I-055] | 2.77 |
| Fc1ccccc1C1(Nc2ccc(-c3nnc(C(F)(F)Cl)o3)cn2)CC1 [Example I-057] | 3.81 |
| CC(C)(C)OC(=O)N1CCN(c2ccc(-c3nnc(C(F)F)o3)cn2)CC1 [Example I-058] | 3.25 |
| Nc1ncc(-c2nnc(C(F)F)o2)cn1 [Example I-059] | 0.75 |
| CNc1ncc(-c2nnc(C(F)F)o2)cn1 [Example I-060] | 1.23 |
| FC(F)c1nnc(-c2cnc(Cl)nc2)o1 [Example I-061] | 1.55 |
| CN(C)c1ncc(-c2nnc(C(F)F)o2)cn1 [Example I-062] | 1.87 |
| C#CCNc1ncc(-c2nnc(C(F)F)o2)cn1 [Example I-063] | 1.59 |
| CN(C)Nc1ncc(-c2nnc(C(F)F)o2)cn1 [Example I-064] | 0.76 |
| FC(F)c1nnc(-c2cnc(C3=CCCC3)nc2)o1 [Example I-065] | 2.70 |
| CC1(Nc2ncc(-c3nnc(C(F)F)o3)cn2)CC1 [Example I-066] | 1.90 |
| FC(F)c1nnc(-c2cnc(NCC3CC3)nc2)o1 [Example I-067] | 2.16 |
| COCCNc1ncc(-c2nnc(C(F)F)o2)cn1 [Example I-068] | 1.48 |
| FC(F)c1nnc(-c2cnc(-c3ccccc3)nc2)o1 [Example I-069] | 2.98 |
| FC(F)c1nnc(-c2cnc(-c3cccnc3)nc2)o1 [Example I-070] | 2.03 |
| FC(F)c1nnc(-c2cnc(-c3cccs3)nc2)o1 [Example I-071] | 2.64 |
| FC(F)c1nnc(-c2cnc(-c3ccsc3)nc2)o1 [Example I-072] | 2.64 |
| CC(Nc1ncc(-c2nnc(C(F)F)o2)cn1)C1CC1 (stereo not shown) [Example I-073] | 2.51 |
| FC(F)c1nnc(-c2cnc(N3CCOCC3)nc2)o1 [Example I-074] | 1.87 |
| FC(F)c1nnc(-c2cnc(Cc3ccccc3)nc2)o1 [Example I-075] | 2.49 |
| FC(F)c1nnc(-c2cnc(Nc3ccccc3)nc2)o1 [Example I-076] | 2.54 |
| Fc1ccc(-c2ncc(-c3nnc(C(F)F)o3)cn2)cc1 [Example I-077] | 3.70 |

| Compound | logP |
| --- | --- |
| CCn1nccc1-c1ncc(-c2nnc(C(F)F)o2)cn1 [Example I-078] | 2.18 |
| Fc1cc(-c2ncc(-c3nnc(C(F)F)o3)cn2)ccn1 [Example I-079] | 2.33 |
| Fc1ccc(-c2ncc(-c3nnc(C(F)F)o3)cn2)cn1 [Example I-080] | 2.31 |
| Cc1noc(C)c1-c1ncc(-c2nnc(C(F)F)o2)cn1 [Example I-081] | 2.57 |
| FC(F)c1nnc(-c2cnc(NC3(C4CC4)CC3)nc2)o1 [Example I-082] | 2.33 |
| FC(F)c1nnc(-c2cnc(CC3CCCCC3)nc2)o1 [Example I-083] | 3.40 |
| CC(C)(Nc1ncc(-c2nnc(C(F)F)o2)cn1)C1CC1 [Example I-084] | 3.26 |
| N#Cc1ccc(-c2ncc(-c3nnc(C(F)F)o3)cn2)cc1 [Example I-085] | 2.72 |
| Cc1ccccc1Nc1ncc(-c2nnc(C(F)F)o2)cn1 [Example I-086] | 2.51 |
| CN(c1ccccc1)c1ncc(-c2nnc(C(F)F)o2)cn1 [Example I-087] | 2.80 |
| FC(F)c1nnc(-c2cnc(NCc3ccccc3)nc2)o1 [Example I-088] | 2.57 |
| COc1ccc(-c2ncc(-c3nnc(C(F)F)o3)cn2)cc1 [Example I-089] | 3.01 |
| FC(F)c1nnc(-c2cnc(OCc3ccccc3)nc2)o1 [Example I-090] | 2.75 |
| Fc1ccc(Cc2ncc(-c3nnc(C(F)F)o3)cn2)cc1 [Example I-091] | 2.59 |
| FC(F)c1nnc(-c2cnc(Sc3ccccc3)nc2)o1 [Example I-092] | 3.04 |
| Fc1ccccc1Nc1ncc(-c2nnc(C(F)F)o2)cn1 [Example I-093] | 2.43 |
| Fc1cccc(Nc2ncc(-c3nnc(C(F)F)o3)cn2)c1 [Example I-094] | 2.77 |
| Fc1ccc(Nc2ncc(-c3nnc(C(F)F)o3)cn2)cc1 [Example I-095] | 2.64 |
| CCn1nccc1Nc1ncc(-c2nnc(C(F)F)o2)cn1 [Example I-096] | 1.49 |
| CC1(C2(Nc3ncc(-c4nnc(C(F)F)o4)cn3)CC2)CC1 [Example I-097] | 2.89 |
| Fc1ccc(Oc2ncc(-c3nnc(C(F)F)o3)cn2)cc1 [Example I-098] | 2.51 |
| FC(F)c1nnc(-c2cnc(-c3ccccc3Cl)nc2)o1 [Example I-099] | 3.32 |
